Measurements as given in US6162806A, “Active oxygen scavengers containing pterin derivatives” (Artemis, Inc., priority 1996, dated 2000).

What was measured:
rats = experiment: Acute toxicity, intravenous; type: in vivo, rat; conditions: 6 mg/kg intravenously; 10 rats; observed for 3 months
Text: Acute toxicity of 6-formyl-pterin was examined, using rats.

[1] = Active oxygen scavenging activity, active oxygen derived from potassium superoxide in DMSO (electron spin resonance spectroscopy); conditions: ESR at 77K, vs no addition
Description: Potassium superoxide (KO2) (28 mg) was added to dimethyl sulfoxide (DMSO) (20 ml) to prepare a saturated solution so that active oxygens were generated in DMSO. As a standard substance, 2,2,6,6-tetramethylpiperidine-N-oxide (TEMPO) was used. TEMPO was dissolved in DMSO in the concentrations of 0.1, 0.3, 0.5, 0.7, 1, 1.2, or 1.5 mM. The electron spin resonance signals obtained (measured at 77K) were integrated to prepare a standard curve.

[2] = tested on: delayed neuronal death (DND) in the cerebral hippocampus area; experiment: Suppression of delayed neuronal death in transient cerebral ischemia model gerbils (MAP2 staining of hippocampus); type: in vivo, gerbil; conditions: 50 mM in physiological saline (1 ml) intraperitoneally 30 minutes after resumption of bloodstream, after 1 week
Description: A neck of each gerbil (body weigh=approximately 80 g) under a general anesthesia was incised. Ambilateral carotids were visually ligated with clips to cut off a bloodstream. After 5 minutes, the bloodstream was resumed, and the incision was sutured. After 30 minutes from the resumption of the bloodstream, physiological saline (1 ml) was intraperitoneally administered to a control group of the gerbils, whereas 50 mM of 6-formyl-pterin in physiological saline (1 ml) was intraperitoneally administered to an administering group of the gerbils. Thereafter, gerbils came out from anesthesia and then were bred for 1 week. Then, a brain was extirpated from each gerbil under a general anesthesia. Tissue slices were prepared from the brain and stained with microtubule-associated protein 2 (MAP2) which can specifically stain neurons, to evaluate the degree of delayed neuronal death (DND) in the cerebral hippocampus area.
FIG. 3 is a photomicrograph of a slice of a cerebral hippocampus tissue from a completely normal gerbil which had not encountered hemostasis, FIG. 4 is a photomicrograph of a slice of a cerebral hippocampus tissue from the control group, and FIG. 5 is a photomicrograph of a slice of a cerebral hippocampus tissue from the 6-formyl-pterin-administering group. […]

[3] = tested on: active oxygens generated by PMA-stimulated polymorphonuclear leukocytes (PMN); experiment: Active oxygen scavenging activity, PMN-PMA system (CLA chemiluminescence); type: cell-based, human (healthy adult); conditions: 37° C., approximately 10 minutes
Description: Venous blood (10 ml) was taken from a healthy adult, and polymorphonuclear leukocytes (abbreviated to PMN) were isolated therefrom. The leukocytes were suspended in HBSS (Hanks' balanced salt solution) to approximately 1×10^6 cells/ml. 2-Methyl-6-phenyl-3,7-dihydroimidazo-(1,2-a)-pyrazin-3-on (hereinafter referred to as CLA) as a chemiluminescent compound, that is, a compound which may generate chemiluminescence due to the presence of active oxygens, was dissolved in a phosphate buffered saline (hereinafter referred to as PBS) to the concentration of 50 μM. Phorbol myristate acetate (abbreviated to PMA) as a polymorphonuclear leukocyte stimulating agent, that is, a compound which may generate active oxygens by stimulating polymorphonuclear leukocytes, was dissolved in PBS to the concentration of 20 μg/ml. The PMN suspension, the CLA solution, and the PMA solution were cooled with ice for storage until use for measurement.
6-Formyl-pterin as the active ingredient of the active oxygen scavenger according to the present invention was dissolved in PBS to the concentrations of 100 μM, 250 μM, or 500 μM, and then warmed to 37° C. before measurement. PBS as a control was also warmed to 37° C. before measurement.
To polymorphonuclear leukocytes isolated from 2 ml of the PMN suspension by centrifugation, the 6-formyl-pterin solutions of various concentrations or PBS were added to adjust total volume to 1930 μl. The mixtures were poured into test tubes and warmed at 37° C. for 15 minutes. After adding the CLA solution (50 μl), the mixture was placed in a chemiluminescence reader and the measurement of an amount of chemiluminescence was started. After 1 minute from the beginning of the measurement, the PMA solution (20 μl) was injected into the test tube with a syringe. The measurement was performed at 37° C. for approximately 10 minutes while monitoring every 10 seconds.
FIG. 1 is a graph showing a total chemiluminescence amount obtained by accumulating chemiluminescence amounts measured every 10 seconds.

[4] = literature; cited from earlier work
[5] = background art; cited from earlier work

| SMILES | death (acute toxicity) (rats) | amount of active oxygens generated from KO2 ([1]; 1 mM 6-formyl-pterin) | amount of active oxygens generated from KO2 ([1]; from 0.1 mM 6-formyl-pterin) | delayed neuronal death [2] | state of neurons in cerebral hippocampus tissue slice (FIG. 5) ([2]; control: neurons completely dropped) | amount of chemiluminescence, i.e., the amount of active oxygens ([3]; 100 μM, vs PBS control (FIG. 1, curve b)) | amount of chemiluminescence, i.e., the amount of active oxygens ([3]; 250 μM, vs PBS control (FIG. 1, curve c)) | amount of chemiluminescence, i.e., the amount of active oxygens ([3]; 500 μM, vs PBS control (FIG. 1, curve d)) | antioxidative activity against active oxygens [4] | teratogenicity [5] |
| --- | --- | --- | --- | --- | --- | --- | --- | --- | --- | --- |
| Nc1nc2ncc(C=O)nc2c(=O)[nH]1 [6-formyl-pterin] | No death was observed | almost disappeared | lowered | suppressed | many neurons were living | significantly suppressed | almost disappeared | almost disappeared | – | – |
| Nc1nc2c(c(=O)[nH]1)NC([C@H](O)[C@H](O)CO)CN2 (some centres unmarked) [NPH4, 5,6,7,8-tetrahydroneopterin] | – | – | – | – | – | – | – | – | potent antioxidative activity | exhibits teratogenicity |
| Nc1nc2ncc([C@H](O)[C@H](O)CO)nc2c(=O)[nH]1 [NP, 2-amino-4-oxo-6-(D-erythro-1',2',3'-trihydroxypropyl)-pteridine] | – | – | – | – | – | – | – | – | antioxidative activity against active oxygens | – |
